Reference: ChEMBL document CHEMBL3588860, “Synthesis and antiproliferative activity of some novel benzo-fused imidazo[1,8]naphthyridinones” (Bioorg Med Chem Lett, 2015)

What was measured:
HCT-116 = assay: Antiproliferative activity against human HCT116 cells after 72 hrs by MTT assay; format: functional, cell-based; conditions: HCT-116, 72 h
HeLa = assay: Antiproliferative activity against human HeLa cells after 72 hrs by MTT assay; format: functional, cell-based
[1] = Antiproliferative activity against human FM3 cells after 72 hrs by MTT assay; format: functional, cell-based; conditions: FM3, 72 h
Ishikawa = assay: Antiproliferative activity against human Ishikawa cells after 72 hrs by MTT assay; format: functional, cell-based
Daudi = assay: Antiproliferative activity against human Daudi cells after 72 hrs by MTT assay; format: functional, cell-based
[2] = Antiproliferative activity against human MES-SA cells after 72 hrs by MTT assay; format: functional, cell-based
[3] = Antiproliferative activity against human MES-SA/Dx5 cells after 72 hrs by MTT assay; format: functional, cell-based; conditions: MES-SA/Dx5, 72 h
MES-SA = assay: Ratio of IC50 for human MES-SA/Dx5 cells to IC50 for human MES-SA cells; format: functional

Compound | IC50 (HCT-116) [µM] | IC50 (HeLa) [µM] | IC50 [1] [µM] | IC50 (Ishikawa) [µM] | IC50 (Daudi) [µM] | IC50 [2] [µM] | IC50 [3] [µM] | Ratio IC50 (MES-SA)
CN(C)CCn1c2ccccc2c(=O)c2cc3ncn(C4CCCC4)c3nc21 | 30.4 | 28.9 | 42.4 | 39.1 | 18.9 | 32.8 | 25 | 0.76
CC(C)n1cnc2cc3c(=O)c4ccccc4[nH]c3nc21 | 37.4 | 29.7 | 66.7 | 62.5 | 34.7 | 37.6 | 46 | 1.23
O=c1c2ccccc2[nH]c2nc3c(cc12)ncn3C1CCCC1 | 42.4 | 21.4 | 30.1 | 60.8 | 15.3 | 20 | 17.2 | 0.86
COc1cccc2c1C(=O)c1c(O)c3c(c(O)c1C2=O)C[C@@](O)(C(=O)CO)C[C@@H]3O[C@H]1C[C@H](N)[C@H](O)[C@H](C)O1 [DOXORUBICIN] | 0.18 | 0.337 | 0.123 | 0.1 | 0.127 | 0.035 | 2.81 | 80.2
CCN(CC)CCn1c2ccccc2c(=O)c2cc3ncn(C(C)C)c3nc21 | 24.5 | 21.6 | 50.6 | 63.3 | 18 | 25.7 | 23.1 | 0.9
O=c1c2ccccc2[nH]c2nc3c(cc12)ncn3-c1ccccc1 | 73.1 | 27.6 | 51.1 | 50 | 31.3 | 47.4 | 34.4 | 0.73
CC(C)n1cnc2cc3c(=O)c4ccccc4n(CCN(C)C)c3nc21 | 12.4 | 9.32 | 17 | 39.4 | 12.9 | 22 | 16.1 | 0.73
O=C1c2c(O)ccc(O)c2C(=O)c2c(NCCNCCO)ccc(NCCNCCO)c21 [MITOXANTRONE] | 0.025 | 0.044 | 0.013 | 0.01 | 0.005 | 0.006 | 0.073 | 12.17
CCN(CC)CCn1c2ccccc2c(=O)c2cc3ncn(-c4ccccc4)c3nc21 | 12.9 | 7.27 | 4.83 | 11.3 | 4.93 | 5.2 | 10.4 | 1.99
CCN(CC)CCn1c2ccccc2c(=O)c2cc3ncn(C4CCCC4)c3nc21 | 8.2 | 11.7 | 28 | 28.6 | 10.6 | 10.6 | 15.5 | 1.46
O=c1c2ccccc2n(CCO)c2nc3c(cc12)ncn3C1CCCC1 | 48.7 | 23.4 | 66.4 | 66.4 | 19 | 22.9 | 22.2 | 0.97
O=c1c2ccccc2n(CCO)c2nc3c(cc12)ncn3-c1ccccc1 | 32.9 | 15.3 | 74.8 | 101 | 20.5 | 51.7 | 47.9 | 0.93
CN(C)CCn1c2ccccc2c(=O)c2cc3ncn(-c4ccccc4)c3nc21 | 27.9 | 23.3 | 29.8 | 43.6 | 33 | 47.3 | 41.7 | 0.88
CC(C)n1cnc2cc3c(=O)c4ccccc4n(CCO)c3nc21 | 40.4 | 13.2 | 45.7 | 66.6 | 22.1 | 34.6 | 32.6 | 0.94
